Assay [1] concerns the target T1, menin (Homo sapiens, UniProt O00255, T541A).
T1 sequence (O00255 with tags, fused parts or gaps T541A): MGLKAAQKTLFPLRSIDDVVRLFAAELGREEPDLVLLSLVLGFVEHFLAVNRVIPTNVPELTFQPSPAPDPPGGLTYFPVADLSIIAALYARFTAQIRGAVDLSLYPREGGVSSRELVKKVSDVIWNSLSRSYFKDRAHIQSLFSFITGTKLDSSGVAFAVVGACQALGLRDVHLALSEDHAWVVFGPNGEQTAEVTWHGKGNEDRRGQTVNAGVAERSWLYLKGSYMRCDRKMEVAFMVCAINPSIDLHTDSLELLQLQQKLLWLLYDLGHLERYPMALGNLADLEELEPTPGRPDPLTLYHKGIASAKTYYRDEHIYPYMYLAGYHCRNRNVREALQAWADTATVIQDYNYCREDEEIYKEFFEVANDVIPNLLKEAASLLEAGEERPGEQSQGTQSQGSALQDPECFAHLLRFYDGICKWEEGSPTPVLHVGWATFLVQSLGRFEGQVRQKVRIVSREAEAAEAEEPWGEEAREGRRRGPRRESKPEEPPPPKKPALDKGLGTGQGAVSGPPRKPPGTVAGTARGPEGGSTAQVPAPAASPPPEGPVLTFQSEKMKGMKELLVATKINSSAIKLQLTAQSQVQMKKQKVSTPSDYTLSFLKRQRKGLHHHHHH
Nature of the assay: Menin/MLL fluorescence polarization (FP) assay. The assay is classed as binding. A digest of the protocol:
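Compound preincubated 10 min with 100 nM menin, then 5 nM FITC-MBM1 peptide added for 15 min at ambient temperature; pH 7.5 Tris buffer, 0.625% DMSO final. FP read at 485/520 nm. % inhibition versus saturating-competitor and no-competitor controls; 11-point three-fold dilutions from 31 μM.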
Background: In fluorescence polarisation assays a small probe gives low polarisation when free and higher when bound to something large.

Assay [2] has as its system MV-4-11. Nature of the assay: Proliferation assay (spheroid assay) MV-4-11. The assay is classed as cell-based, human. The settings on record: Homo sapiens. A digest of the protocol:
(§1)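 Cells grown as spheroids in ultra-low attachment round-bottom wells with compound at varied concentrations (0.3% DMSO) for 8 d at 37 °C; confluence imaged every 4 h. AUC of confluence over time (t=0 baseline) expressed as % of vehicle control; absolute IC50 from nonlinear least-squares fit.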

For assay [3], the system named is MOLM14. The assay is described as follows: Proliferation assay (spheroid assay) MOLM14. The assay is classed as cell-based, human. A digest of the protocol: as §1
The test system of assay [4] is K562. The assay is described as follows: Proliferation assay (spheroid assay) K562, control cell line. The assay is classed as cell-based. Particulars: Homo sapiens. As for the experimental part:
(§2) The anti-proliferative effect of menin/MLL protein/protein interaction inhibitor test compounds was assessed in human leukemia cell lines. The cell lines MV-4-11 and MOLM14 harbor MLL translocations and express the MLL fusion proteins MLL-AF4 and MLL-AF9, respectively, as well as the wildtype protein from the second allele. […] K562 and KG1 were used as a control cell lines containing two MLL wildtype alleles in order to exclude compounds that display general cytotoxic effects.
(§3) MV-4-11 and MOLM14 were cultured in RPMI-1640 (Sigma Aldrich) supplemented with 10% fetal bovine serum (HyClone), 2 mM L-glutamine (Sigma Aldrich) and 50 μg/ml gentamycin (Gibco). K562 were propagated in RPMI-1640 (Sigma Aldrich) supplemented with 20% fetal bovine serum (HyClone), 2 mM L-glutamine (Sigma Aldrich) and 50 μg/ml gentamycin (Gibco). KG1 were cultured in Iscove's MDM (Gibco) supplemented with 20% fetal bovine serum (HyClone), 2 mM L-glutamine (Sigma Aldrich) and 50 μg/ml gentamycin (Gibco).
(§4) In order to assess the anti-proliferative effects, 1,500 MV-4-11, 300 MOLM14, 750 K562 or 1,300 KG1 cells were seeded in 200 μl media per well in 96-well round bottom, ultra-low attachment plates (Costar, catalogue number 7007). Cell seeding numbers were chosen based on growth curves to ensure linear growth throughout the experiment. Test compounds were added at different concentrations and the DMSO content was normalized to 0.3%. Cells were incubated for 8 d at 37° C. and 5% CO2. Spheroid like growth was monitored in real-time by live-cell imaging (IncuCyteZOOM, Essenbio, 4× objective) acquiring one image every four hours for 8 d. Confluence (%) as a measure of spheroid size was determined using an integrated analysis tool.
(§5) In order to determine the cumulative effect of the test compounds over time, the area under the curve (AUC) in a plot of confluence against time was calculated. Confluence at the beginning of the experiment (t=0) was used as baseline for the AUC calculation.
(§6) Absolute IC50 values were calculated according to the following procedure: % Control=(AUC sample/AUC control)*100 AUC control=mean AUC of control values (cells without compound/DMSO as vehicle control)
(§7) A non-linear curve fit was applied using the least squares (ordinary) fit method to the plot of % control versus compound concentration. Based on this, the absolute IC50 value (half maximal inhibitory concentration of the test compound causing an anti-proliferative effect of 50% relative to the vehicle control) was calculated.

Assay [5] relates to KG1. Nature of the assay: Proliferation assay (spheroid assay) KG1, control cell line. Particulars: Homo sapiens. The assay is classed as cell-based. As for the experimental part:
as §2, §3, §4, §5, §6, §7

The mark [6] stands for this setting: MV4-11, MV-4-11, averaged values, read-out: Spheroid assay MV-4-11 (IC50 (μM)).
Where [7] appears, read: Homo sapiens, MOLM-14, MOLM14, averaged values, read-out: Spheroid assay MOLM14 (IC50 (μM)).
[8] abbreviates: K562 control cell line, averaged values, read-out: Spheroid assay K562 (IC50 (μM)).
[9] abbreviates: KG-1, KG1 control cell line, averaged values, read-out: Spheroid assay KG1 (IC50 (μM)).

“And” between values parts separate entries of the source, which are not always exact repeats. Equal entries are not always repeated. Where two headings read alike, the source gives them in different places.

Turning to `FC(F)(F)Cc1cc2c(N3CC[C@]4(CCN(Cc5ccccc5)C4)C3)ncnc2s1` (single isomer, unassigned) [Compound 20b], the 50% inhibitory concentration (IC50) in assay [1] (100 nM menin, 5 nM FITC-MBM1 peptide, individual measurements (not averaged), read-out: (1) Menin FP assay (IC50 (μM))) was 0.038 µM; in assay [2] (MV4-11, 192 h, MV-4-11 (MLL-AF4), 8 d, absolute IC50 from AUC of confluence, individual measurements (not averaged), read-out: (2) Spheroid assay MV-4-11 (IC50 (μM))), 0.51 µM; in assay [3] (MOLM14 (MLL-AF9), 8 d, absolute IC50 from AUC of confluence, individual measurements (not averaged), read-out: (2) Spheroid assay MOLM14 (IC50 (μM))), > 15 µM and 2.5 µM; in assay [4] (192 h, K562 (MLL wildtype control), 8 d, absolute IC50 from AUC of confluence, individual measurements (not averaged), read-out: (2) Spheroid assay K562 (IC50 (μM))) it was above 15 µM; in assay [5] (KG-1, 192 h, KG1 (MLL wildtype control), 8 d, absolute IC50 from AUC of confluence, individual measurements (not averaged), read-out: (2) Spheroid assay KG1 (IC50 (μM))) it was above 15 µM.
Take `CC(C)[C@H](C1CNC1)N1CC2(CCN(c3ncnc4sc(CC(F)(F)F)cc34)C2)C1` [Compound 273]: the half-inhibitory concentration (IC50) in assay [1] (averaged values over all measurements, read-out: Menin FP assay (IC50 (μM))) is 0.021 µM; in assay [2] (setting [6]), 0.08 µM; in assay [3] (setting [7]), 0.86 µM; in assay [4] (setting [8]) it was 10.3 µM; in assay [5] (setting [9]), 12 µM.
In the case of `CC(C)[C@H](C1CCNCC1)N1CC2(CCN(c3ncnc4sc(CC(F)(F)F)cc34)C2)C1` [Compound 168], the concentration for half-maximal inhibition (IC50) in assay [2] (setting [6]) worked out at 0.19 µM; in assay [3] (setting [7]), 0.86 µM; in assay [4] (setting [8]) it was 11.9 µM; in assay [5] (setting [9]) it was 15 µM.
The corresponding values for `CC(C)[C@H](C1CN(C)C1)N1CC2(CCN(c3ncnc4sc(CC(F)(F)F)cc34)C2)C1` [Compound 196] are 0.3 µM, 1.1 µM, above 15 µM and above 15 µM.
On the same counts, the results for `CC(C)[C@H](C1CCOCC1)N1CC2(CCN(c3ncnc4sc(CC(F)(F)F)cc34)C2)C1` [Compound 193] are 0.65 µM, 1.7 µM, above 15 µM and above 15 µM.
On to `CC(C)C[C@H](c1cnn(C)c1)N1CC2(CCN(c3ncnc4sc(CC(F)(F)F)cc34)C2)C1` [Compound 247], for which the IC50 in assay [2] (setting [6]) is 0.45 µM; in assay [3] (setting [7]), 2.1 µM; in assay [4] (setting [8]) it was above 15 µM; in assay [5] (setting [9]), above 15 µM.
As for `C[C@@H]1CN[C@H](C(=O)N2CC3(C2)CN(c2ncnc4sc(CC(F)(F)F)cc24)C3)C1` [Compound 82], the 50% inhibitory concentration (IC50) in assay [2] (setting [6]) was 0.38 µM; in assay [3] (setting [7]), 1.8 µM; in assay [4] (setting [8]), above 15 µM; in assay [5] (setting [9]), above 15 µM.
Turning to `CC[C@H](c1cnn(C)c1)N1CC2(CCN(c3ncnc4sc(CC(F)(F)F)cc34)C2)C1` [Compound 220], the IC50 in assay [2] (setting [6]) was 0.65 µM; in assay [3] (setting [7]), 4.7 µM; in assay [4] (setting [8]), above 15 µM; in assay [5] (setting [9]), above 15 µM.

As usually defined, the IC50 is the midpoint of a concentration-inhibition curve.

The record behind these values is patent US12084462B2, “Spiro bicyclic inhibitors of menin-MLL interaction” (Janssen Pharmaceutica NV, priority 2016, dated 2024).
